Laboratory results taken from patent US8791110B2 (priority 2006, dated 2014).
Read-outs that look alike come from different tables or passages of the source. Numbered stars: 1 amine (or outer) side, 2 acyl side, 3 side chain; on linkers, the order of the positions; unused ones are H or OH. Bridge positions count the residues as written; N and C are the ends. Square brackets hold non-standard residues; d marks the D form. Peptide text beside a SMILES is read from it. I, II: the chains in the order shown. Actinocin(9to1) = Cc1c2oc3c(C)ccc(C(=O)[*:1])c3nc-2c(C(=O)[*:2])c(N)c1=O; NMeV = CN[C@H](C(=O)O)C(C)C; Sar = CNCC(=O)O

Experiments:
Arenavirus = settings: cited from earlier work
[1] = system: Tacaribe (TRVL 11573) virus; test: microbe, parasite or virus in culture; format: cell-based; settings: Mammarenavirus tacaribeense, Vero
Candid 1 = test: organism not typed; format: cell-based, Junín virus; settings: read-out: EC50 Candid 1
in vitro = settings: African green monkey
Machupo virus = test: microbe, parasite or virus in culture; format: cell-based; settings: Mammarenavirus machupoense, Vero, 120 h, read-out: EC50 Category A NWA, Machupo
Guanarito virus = test: microbe, parasite or virus in culture; format: cell-based; settings: Mammarenavirus guanaritoense, Vero, 120 h, read-out: EC50 Category A NWA, Guanarito
[2] = in vivo; cited from earlier work
[3] = in vivo; cited from earlier work; remark: listed apart in the source

For `Cc1c2oc3c(C)ccc(C(=O)N[C@@H]4C(=O)N[C@H](C(C)C)C(=O)N5CCC[C@H]5C(=O)N(C)CC(=O)N(C)[C@@H](C(C)C)C(=O)O[C@@H]4C)c3nc-2c(C(=O)N[C@@H]2C(=O)N[C@H](C(C)C)C(=O)N3CCC[C@H]3C(=O)N(C)CC(=O)N(C)[C@@H](C(C)C)C(=O)O[C@@H]2C)c(N)c1=O` [actinomycin D] (I: T[dV]P[Sar][NMeV] / II: T[dV]P[Sar][NMeV]; ester I:1-I:C, II:1-II:C; linker I:N-II:N via Actinocin(9to1)), the anti-Arenavirus activity (Arenavirus) is listed as “generally weak and non-specific”.

For `CN1CCN(C(=O)Nc2ccc(Cl)c(Cl)c2)CC1` [Compound 20013], the EC50 ([1]; 168 h, read-out: EC50 Tacaribe) was over 50000 nM, the EC50 (Candid 1) was over 50000 nM and the CC50 (Vero cells; African green monkey) was over 50000 nM. For the same compound, the CC50 (in vitro) was over 50000 nM.

In the case of `CN(C)CCCN1c2ccccc2Sc2ccc(Cl)cc21` [chlorpromazine], the anti-Arenavirus activity (Arenavirus) is listed as “generally weak and non-specific”.

In the case of `CN1CCN(CCCN2c3ccccc3Sc3ccc(C(F)(F)F)cc32)CC1` [trifluoroperazine], the anti-Arenavirus activity (Arenavirus) is given as “generally weak and non-specific”.

In the case of `CN1CCN(C(=S)Nc2ccc(Cl)c(Cl)c2)CC1` [Compound 313761, 4-methyl-piperazine-1-carbothioic acid (3,4-dichlorophenyl)-amide], the EC50 ([1]; 168 h, read-out: EC50 Tacaribe) is reported as 140 nM, the EC50 ([1]; read-out: EC50 value in the CPE assay) is reported as 140 nM and the EC50 (Candid 1) is reported as 260 nM. For the same compound, the EC50 (Machupo virus) was 300 nM, the EC50 (Guanarito virus) was 150 nM and the “toxicity / effect on cell growth at antiviral concentrations” value (Vero cells) was “active at non-toxic concentrations”. It also gave a CC50 (in vitro) of 50000 nM.

For `NC(=O)c1ncn([C@@H]2O[C@H](CO)[C@@H](O)[C@H]2O)n1` [ribavirin, Ribavirin], the adverse effects [2] is listed as “dose-related, reversible hemolytic anemia” and the reproductive toxicity [3] is listed as “teratogenicity and embryo lethality”.

For `NC12CC3CC(CC(C3)C1)C2` [amantadine], the anti-Arenavirus activity (Arenavirus) is listed as “generally weak and non-specific”.
